{"source": "PubChem BioAssay (NCI)", "test_in_all_cases": "DTP human tumour cell line panel, 48 h", "key": {"[1]": {"tested_on": "NCI-H460 lung"}, "[2]": {"tested_on": "DU-145 prostate"}, "[3]": {"tested_on": "UO-31 renal"}, "[4]": {"tested_on": "SF-295 CNS"}, "[5]": {"tested_on": "MDA-MB-435"}, "[6]": {"tested_on": "NCI/ADR-RES ovarian"}, "[7]": {"tested_on": "HOP-62 NSCLC"}, "[8]": {"tested_on": "SN12C renal"}, "[9]": {"tested_on": "PC-3 prostate"}, "[10]": {"tested_on": "SK-MEL-5 melanoma"}, "[11]": {"tested_on": "OVCAR-8 ovarian"}, "[12]": {"tested_on": "NCI-H23 lung"}, "[13]": {"tested_on": "HS 578T breast"}, "[14]": {"tested_on": "OVCAR-3 ovarian"}, "[15]": {"tested_on": "NCI-H226 lung"}, "[16]": {"tested_on": "HCC-2998 colon"}, "[17]": {"tested_on": "ACHN renal"}, "[18]": {"tested_on": "OVCAR-4 ovarian"}, "[19]": {"tested_on": "MDA-N"}, "[20]": {"tested_on": "SK-MEL-28 melanoma"}, "[21]": {"tested_on": "786-0 renal"}, "[22]": {"tested_on": "U251 CNS"}, "[23]": {"tested_on": "SK-OV-3 ovarian"}, "[24]": {"tested_on": "SF-268 CNS"}, "[25]": {"tested_on": "A549 NSCLC"}, "[26]": {"tested_on": "M14 melanoma"}, "[27]": {"tested_on": "SNB-75 CNS"}, "[28]": {"tested_on": "SNB-19 CNS"}, "[29]": {"tested_on": "CAKI-1 renal"}, "[30]": {"tested_on": "NCI-H522 lung"}, "[31]": {"tested_on": "SW-620 colon"}, "[32]": {"tested_on": "MOLT-4 leukemia"}, "[33]": {"tested_on": "K-562 leukemia"}, "[34]": {"tested_on": "SR leukemia"}, "[35]": {"tested_on": "T-47D breast"}, "[36]": {"tested_on": "TK-10 renal"}, "[37]": {"tested_on": "SK-MEL-2 melanoma"}, "[38]": {"tested_on": "UACC-62 melanoma"}, "[39]": {"tested_on": "HCT-15 colon"}, "[40]": {"tested_on": "UACC-257 melanoma"}, "[41]": {"tested_on": "COLO 205 colon"}, "[42]": {"tested_on": "LOX IMVI melanoma"}, "[43]": {"tested_on": "HCT-116 colon"}, "[44]": {"tested_on": "A498 renal"}, "[45]": {"tested_on": "KM12 colon"}, "[46]": {"tested_on": "OVCAR-5 ovarian"}, "[47]": {"tested_on": "HT29 colon"}, "[48]": {"tested_on": "CCRF-CEM leukemia"}, "[49]": {"tested_on": "MDA-MB-231 breast"}, "[50]": {"tested_on": "RPMI-8226 leukemia"}, "[51]": {"tested_on": "MALME-3M melanoma"}, "[52]": {"tested_on": "EKVX NSCLC"}, "[53]": {"tested_on": "RXF 393 renal"}, "[54]": {"tested_on": "IGROV1 ovarian"}}, "note": "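Dose response: 5 concentrations. Exposure: 48 h. Format: 96-well plates. Endpoint: linear interpolation; highest concentration if not reached. TGI marks complete inhibition of growth.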"}
{"smiles": "C=CC[C@@H]1C(=O)[C@@]2(O[Si](C(C)C)(C(C)C)C(C)C)CC[C@@H]1C[C@H]2NC(=O)OCC(Cl)(Cl)Cl", "values": [{"measurement": "TGI", "setting": "[1]", "value": "> 100", "unit": "µM"}, {"measurement": "TGI", "setting": "[2]", "value": "> 100", "unit": "µM"}, {"measurement": "TGI", "setting": "[3]", "value": "> 100", "unit": "µM"}, {"measurement": "TGI", "setting": "[4]", "value": 85.8, "unit": "µM"}, {"measurement": "TGI", "setting": "[5]", "value": "> 100", "unit": "µM"}, {"measurement": "TGI", "setting": "[6]", "value": "> 100", "unit": "µM"}, {"measurement": "TGI", "setting": "[7]", "value": "> 100", "unit": "µM"}, {"measurement": "TGI", "setting": "[8]", "value": "> 100", "unit": "µM"}, {"measurement": "TGI", "setting": "[9]", "value": "> 100", "unit": "µM"}, {"measurement": "TGI", "setting": "[10]", "value": "> 100", "unit": "µM"}, {"measurement": "TGI", "setting": "[11]", "value": "> 100", "unit": "µM"}, {"measurement": "TGI", "setting": "[12]", "value": "> 100", "unit": "µM"}, {"measurement": "TGI", "setting": "[13]", "value": "> 100", "unit": "µM"}, {"measurement": "TGI", "setting": "[14]", "value": "> 100", "unit": "µM"}, {"measurement": "TGI", "setting": "[15]", "value": "> 100", "unit": "µM"}, {"measurement": "TGI", "setting": "[16]", "value": "> 100", "unit": "µM"}, {"measurement": "TGI", "setting": "[17]", "value": "> 100", "unit": "µM"}, {"measurement": "TGI", "setting": "[18]", "value": "> 100", "unit": "µM"}, {"measurement": "TGI", "setting": "[19]", "value": "> 100", "unit": "µM"}, {"measurement": "TGI", "setting": "[20]", "value": "> 100", "unit": "µM"}, {"measurement": "TGI", "setting": "[21]", "value": "> 100", "unit": "µM"}, {"measurement": "TGI", "setting": "[22]", "value": "> 100", "unit": "µM"}, {"measurement": "TGI", "setting": "[23]", "value": "> 100", "unit": "µM"}, {"measurement": "TGI", "setting": "[24]", "value": "> 100", "unit": "µM"}, {"measurement": "TGI", "setting": "[25]", "value": "> 100", "unit": "µM"}, {"measurement": "TGI", "setting": "[26]", "value": "> 100", "unit": "µM"}, {"measurement": "TGI", "setting": "[27]", "value": "> 100", "unit": "µM"}, {"measurement": "TGI", "setting": "[28]", "value": "> 100", "unit": "µM"}, {"measurement": "TGI", "setting": "[29]", "value": "> 100", "unit": "µM"}, {"measurement": "TGI", "setting": "[30]", "value": 0.0356, "unit": "µM"}, {"measurement": "TGI", "setting": "[31]", "value": "> 100", "unit": "µM"}, {"measurement": "TGI", "setting": "[32]", "value": "> 100", "unit": "µM"}, {"measurement": "TGI", "setting": "[33]", "value": "> 100", "unit": "µM"}, {"measurement": "TGI", "setting": "[34]", "value": "> 100", "unit": "µM"}, {"measurement": "TGI", "setting": "[35]", "value": "> 100", "unit": "µM"}, {"measurement": "TGI", "setting": "[36]", "value": "> 100", "unit": "µM"}, {"measurement": "TGI", "setting": "[37]", "value": "> 100", "unit": "µM"}, {"measurement": "TGI", "setting": "[38]", "value": "> 100", "unit": "µM"}, {"measurement": "TGI", "setting": "[39]", "value": "> 100", "unit": "µM"}, {"measurement": "TGI", "setting": "[40]", "value": "> 100", "unit": "µM"}, {"measurement": "TGI", "setting": "[41]", "value": "> 100", "unit": "µM"}, {"measurement": "TGI", "setting": "[42]", "value": "> 100", "unit": "µM"}, {"measurement": "TGI", "setting": "[43]", "value": "> 100", "unit": "µM"}, {"measurement": "TGI", "setting": "[44]", "value": "> 100", "unit": "µM"}, {"measurement": "TGI", "setting": "[45]", "value": "> 100", "unit": "µM"}, {"measurement": "TGI", "setting": "[46]", "value": "> 100", "unit": "µM"}, {"measurement": "TGI", "setting": "[47]", "value": "> 100", "unit": "µM"}, {"measurement": "TGI", "setting": "[48]", "value": "> 100", "unit": "µM"}]}
{"smiles": "O=C1c2scc(-c3ccc(Cl)cc3)c2-n2cccc21", "values": [{"measurement": "TGI", "setting": "[1]", "value": "> 100", "unit": "µM"}, {"measurement": "TGI", "setting": "[2]", "value": "> 100", "unit": "µM"}, {"measurement": "TGI", "setting": "[4]", "value": "> 100", "unit": "µM"}, {"measurement": "TGI", "setting": "[5]", "value": "> 100", "unit": "µM"}, {"measurement": "TGI", "setting": "[9]", "value": "> 100", "unit": "µM"}, {"measurement": "TGI", "setting": "[49]", "value": "> 100", "unit": "µM"}, {"measurement": "TGI", "setting": "[50]", "value": "> 100", "unit": "µM"}, {"measurement": "TGI", "setting": "[10]", "value": "> 100", "unit": "µM"}, {"measurement": "TGI", "setting": "[14]", "value": "> 100", "unit": "µM"}, {"measurement": "TGI", "setting": "[16]", "value": "> 100", "unit": "µM"}, {"measurement": "TGI", "setting": "[17]", "value": "> 100", "unit": "µM"}, {"measurement": "TGI", "setting": "[19]", "value": "> 100", "unit": "µM"}, {"measurement": "TGI", "setting": "[20]", "value": "> 100", "unit": "µM"}, {"measurement": "TGI", "setting": "[23]", "value": "> 100", "unit": "µM"}, {"measurement": "TGI", "setting": "[51]", "value": "> 100", "unit": "µM"}, {"measurement": "TGI", "setting": "[25]", "value": "> 100", "unit": "µM"}, {"measurement": "TGI", "setting": "[52]", "value": "> 100", "unit": "µM"}, {"measurement": "TGI", "setting": "[26]", "value": "> 100", "unit": "µM"}, {"measurement": "TGI", "setting": "[27]", "value": "> 100", "unit": "µM"}, {"measurement": "TGI", "setting": "[53]", "value": "> 100", "unit": "µM"}, {"measurement": "TGI", "setting": "[30]", "value": "> 100", "unit": "µM"}, {"measurement": "TGI", "setting": "[31]", "value": "> 100", "unit": "µM"}, {"measurement": "TGI", "setting": "[32]", "value": "> 100", "unit": "µM"}, {"measurement": "TGI", "setting": "[33]", "value": "> 100", "unit": "µM"}, {"measurement": "TGI", "setting": "[34]", "value": 13.7, "unit": "µM"}, {"measurement": "TGI", "setting": "[35]", "value": "> 100", "unit": "µM"}, {"measurement": "TGI", "setting": "[54]", "value": "> 100", "unit": "µM"}, {"measurement": "TGI", "setting": "[37]", "value": "> 100", "unit": "µM"}, {"measurement": "TGI", "setting": "[38]", "value": "> 100", "unit": "µM"}, {"measurement": "TGI", "setting": "[40]", "value": "> 100", "unit": "µM"}, {"measurement": "TGI", "setting": "[41]", "value": "> 100", "unit": "µM"}, {"measurement": "TGI", "setting": "[42]", "value": "> 100", "unit": "µM"}, {"measurement": "TGI", "setting": "[44]", "value": 2.78, "unit": "µM"}, {"measurement": "TGI", "setting": "[45]", "value": "> 100", "unit": "µM"}, {"measurement": "TGI", "setting": "[46]", "value": "> 100", "unit": "µM"}, {"measurement": "TGI", "setting": "[48]", "value": "> 100", "unit": "µM"}]}
